According to publication PMC8519428, “Structural analysis of the boronic acid β-lactamase inhibitor vaborbactam binding to Pseudomonas aeruginosa penicillin-binding protein 3” (PLoS ONE, 2021):

Target: T1, penicillin-binding protein 3 (PBP3) (Pseudomonas aeruginosa, UniProt G3XD46)
T1 construct: gene ftsI; final PBP3 model contains residues 57–190, 213–490, and 501–561
Experiment: X-ray crystal structure ([…] Å, soak); also Bocillin competition assay (IC50) and DSF thermal shift (about […] °C)

T1 sequence (G3XD46 50-579): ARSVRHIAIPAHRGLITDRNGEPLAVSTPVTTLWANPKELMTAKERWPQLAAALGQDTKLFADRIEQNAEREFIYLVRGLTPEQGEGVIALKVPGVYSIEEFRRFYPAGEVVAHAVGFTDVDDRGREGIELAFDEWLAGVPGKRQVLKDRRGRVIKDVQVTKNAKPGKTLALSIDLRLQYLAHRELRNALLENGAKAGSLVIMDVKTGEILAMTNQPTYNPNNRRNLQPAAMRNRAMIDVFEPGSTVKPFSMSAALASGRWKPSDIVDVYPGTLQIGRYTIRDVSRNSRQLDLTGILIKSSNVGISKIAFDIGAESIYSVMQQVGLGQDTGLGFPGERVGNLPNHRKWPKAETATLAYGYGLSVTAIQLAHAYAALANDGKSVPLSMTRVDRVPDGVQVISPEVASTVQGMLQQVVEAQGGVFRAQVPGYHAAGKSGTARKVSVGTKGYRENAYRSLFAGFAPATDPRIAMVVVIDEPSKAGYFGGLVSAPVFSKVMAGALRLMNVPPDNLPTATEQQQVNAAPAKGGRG

O=C(O)C[C@@H]1CC[C@H](NC(=O)Cc2cccs2)B(O)O1 [vaborbactam]
IC50: 262 µM
